{"source": "patent US10934346B2", "about": "“Modified T cell comprising a polynucleotide encoding an inducible stimulating molecule comprising MyD88, CD40 and FKBP12” (priority 2014, dated 2021)", "origin": "cited, not measured here", "test_system": "CD40-dependent signaling cascades", "settings": "mouse, in vivo; cited from earlier work"}
{"smiles": "CC[C@H](C(=O)N1CCCC[C@H]1C(=O)O[C@H](CCc1ccc(OC)c(OC)c1)c1cccc(OCC(=O)NCC(CNC(=O)COc2cccc([C@@H](CCc3ccc(OC)c(OC)c3)OC(=O)[C@@H]3CCCCN3C(=O)[C@@H](CC)c3cc(OC)c(OC)c(OC)c3)c2)CN(C)C)c1)c1cc(OC)c(OC)c(OC)c1", "note": "[AP20187]", "values": [{"measurement": "induction of signaling in DCs", "result": "led to the in vivo induction of CD40-dependent signaling cascades in murine DCs"}]}
